{
  "source": "patent US9839622B2",
  "about": "“Methods of treating hypothalamic obesity” (Zafgen, Inc., priority 2012, dated 2017)",
  "key": {"[1]": {"assay": "Treatment of obese humans also taking anti-depressants known to cause hypothalamic obesity", "type": "in vivo, human", "details": "obese humans on anti-depressants, average dose 1.44 mg twice weekly subcutaneous", "description": "FIG. 3 depicts percentage reduction in body weight by up to seven weeks of treatment with 6-O-(4-dimethylaminoethoxy)cinnamoyl fumagillol (ZGN-440; average dose of 1.44 mg administered twice weekly by subcutaneous administration, n=5) or placebo (administered twice weekly by subcutaneous administration, n=2) in obese human patients treated otherwise for depression with mirtazapine, sertraline, imipramine, paroxetine, or amitryptyline.\nFive of these patients were also administered ZGN-440 (average dose of 1.44 mg, administered twice weekly by subcutaneous administration). On average, patients lost 5.4 percent of their baseline body weight over the seven week treatment. […] At baseline, the average (±SEM) body weight was 100.2±3.2 kg, and the average body mass index was 38.8±1.7 kg/m^2. […] (FIG. 3)."}, "[2]": {"assay": "Mouse model of hypothalamic injury (gold thioglucose)", "type": "in vivo, C57/BL6 mice", "details": "0.1 mg/kg daily subcutaneous", "description": "FIG. 1 depicts body weight change (percent) of C57/BL6 mice treated with single dose of 0.5 g/kg gold thioglucose, and after 40 days, started on 0.1 mg/kg daily subcutaneous dose of 6-O-(4-dimethylaminoethoxy)cinnamoyl fumagillol (ZGN-440). FIG. 2 depicts normalized food intake in GTG mice to the level of normal mice that were not treated with gold thioglucose, after 0.1 mg/kg daily subcutaneous dose of 6-O-(4-dimethylaminoethoxy)cinnamoyl fumagillol. Gold thioglucose (GTG) is a chemical treatment used as a model of hypothalamic injury. C57/BL6 mice were treated with single dose of 0.5 g/kg gold thioglucose. After 40 days a cohort was started on 0.1 mg/kg daily subcutaneous dose of 6-O-(4-dimethylaminoethoxy)cinnamoyl fumagillol (ZGN-440). […] (FIG. 1). The food intake level of GTG treated mice was increased to over 3 g/day/mouse, where in GTG mice treated with ZGN-440 the food intake decreased to the level of normal mice that were not treated with gold thioglucose (below 3 g/day). (FIG. 2)."}},
  "data": [
    {"compound": "CO[C@@H]1[C@H](OC(=O)/C=C/c2ccc(OCCN(C)C)cc2)CC[C@]2(CO2)[C@H]1[C@@]1(C)O[C@@H]1CC=C(C)C", "note": "[ZGN-440, 6-O-(4-dimethylaminoethoxy)cinnamoyl fumagillol]", "values": [
      {"measurement": "loss of baseline body weight (average)", "setting": "[1]; n=5, seven week treatment, FIG. 3", "value": 5.4, "unit": "%"},
      {"measurement": "weight loss vs. placebo (percent change of body weight from baseline, Student's t test)", "setting": "[1]; up to seven weeks, placebo failed to lose weight", "value": "statistically significant"},
      {"measurement": "body weight change", "setting": "[2]; GTG (0.5 g/kg single dose) C57/BL6 mice, started after 40 days, FIG. 1", "value": "Significant weight loss"},
      {"measurement": "food intake", "setting": "[2]; GTG mice, untreated GTG mice over 3 g/day/mouse, FIG. 2", "value": "below 3 g/day"}
    ]}
  ]
}
